What was measured:
RA patients = test: Clinical study of CF101 in RA patients, ACR response; type: in vivo, human
Method: Blood was withdrawn from RA patients who were enrolled in a clinical study sponsored by Can-Fite BioPharma, in which the effect of CF101, a clinical grade IB-MECA, on arthritic patients was evaluated. The patients randomly received 0.1, 1.0 or 4.0 mg of CF101 twice daily. Blood was withdrawn at 2 time points: (a) after a washout period of 4-6 weeks from a previous treatment and before CF101 treatment was initiated—this was considered as baseline level; (b) after 3 months of treatment with CF101. Peripheral blood mononuclear cells were separated and protein was extracted as described above. In addition, C reactive protein (CRP) values, the number of tender and swollen joints, the physicians global assessment, the patient own assessment, the pain score and the disability score were recorded and the ACR score was calculated for each patient (ACR is a score that is calculated according to criteria established by the American College of Rheumatology, based on the aforementioned measures, to evaluate the effectiveness of drugs for treatment of RA; ACR 20, ACR 50 and ACR 70 respectively represent a 20%, 50% and 70% improvement in this score).

A3AR [1] = test: A3AR protein expression level by Western blot in tissues of AIA rats; type: in vivo, rat
Method: (§1) Female Lewis rats, aged 8-12 weeks were obtained from Harlan Laboratories (Jerusalem, Israel). Rats were maintained on a standardized pelleted diet and supplied with tap water. Experiments were performed in accordance with the guidelines established by the Institutional Animal Care and Use Committee at Can-Fite BioPharma, Petah Tikva, Israel. The rats were injected subcutaneously (SC) at the tail base with 100 μl of suspension composed of incomplete Freund's adjuvant (IFA) with 10 mg/ml heat killed Mycobacterium tuberculosis, (Mt) H37Ra, (Difco, Detroit, USA). Each group contained 10 animals.
(§2) Treatment with IB-MECA (10 μg/kg) was initiated on day 14 after vaccination and was orally administered by gavage, twice daily. Another group was treated with Methotrexate (MTX) (1.5 mg/kg) intraperitoneally every 3 days, starting on day 14th after vaccination. The control group in each experiment received vehicle only (DMSO in a dilution corresponding to that of the drugs).
The hind paws were dissected above the ankle joint. The bony tissue was broken into pieces, snap frozen in liquid nitrogen and stored at −80° C. until use. To prepare a protein extract, RIPA buffer (containing 150 mM NaCl, 50 mM Tris, 1% NP40, 0.5% Deoxycholate and 0.1% SDS) was added to the paw tissue (4 ml/gr of tissue). The mixture was homogenized on ice with a polytron and centrifuged.
Synovial tissue was removed and synovial cells were separated by incubating the tissue in RPMI containing 1 mg/ml Collagenase IV and 0.1 mg/ml DNase with a vigorous shaking (200 rpm) at 37° C. for 30 min. The supernatant containing the synovial cells was collected and the undigested tissue was re-extracted. The supernatants from both extractions were combined and cells were washed with PBS. Protein extracts were prepared. […]
Western blot analysis (WB) of synovial, paw, spleen and lymph nodes were carried out according to the following protocol. […] Protein concentrations were determined using the Bio-Rad protein assay dye reagent. […] Bands were recorded using BCIP/NBT color development kit (Promega, Madison, Wis., USA).

A3AR [2] = test: A3AR level in peripheral blood mononuclear cells of RA patients by Western blot; type: in vivo, human
Method: Protein concentrations were determined using the Bio-Rad protein assay dye reagent. Equal amounts of the sample (50 μg) were separated by SDS-PAGE, using 12% polyacrylamide gels. […] Bands were recorded using BCIP/NBT color development kit (Promega, Madison, Wis., USA).

[3] = tested on: Adjuvant Induced Arthritis (AIA) rats; test: Adjuvant induced arthritis (AIA) model in rats, clinical disease activity score; type: in vivo, rat; settings: CF101 10 μg/kg orally twice daily from day 14 after immunization, MTX 1.5 mg/kg intraperitoneally every 3 days from day 14, vs vehicle
Method: as §1, §2
Clinical Disease Activity Score was assessed as follows: the animals were inspected every second day for clinical arthritis. […] The clinical score was calculated by adding the four individual legs' score. The inflammatory intensity was also determined in accordance with the increase in the rat hind paw's diameter, measured by caliper (Mitotoyo, Tokyo, Japan).

[4] = out of 17 RA patients, 3 months of CF101

SMILES | responders with ACR 20 only response (RA patients; [4]) | responders with ACR 50 response (RA patients; [4]) | responders with ACR 70 response (RA patients; [4]) | non-responders (not even an ACR 20 response) (RA patients; out of 17 RA patients, 3 months of CF101 0.1, 1.0 or 4.0 mg twice daily) | other parameters, particularly number of swollen and tender joints, in patient no. 1517 (RA patients; single RA patient with no ACR response (CRP change below 0%), 3 months of CF101) | A3AR expression level in peripheral hematopoietic tissues (spleen and lymph node) (A3AR [1]; AIA rats treated with IB-MECA, low in naïve animals, high in AIA) | A3AR protein expression level in inflammatory tissues (paw & synovial) (A3AR [1]; AIA rats, upon IB-MECA treatment vs untreated AIA) | A3AR level in PBMNC of non-responders (A3AR [2]; after 3 months CF101 treatment vs baseline) | A3AR level in PBMNC of ACR 50 and ACR 70 responders (A3AR [2]; after 3 months CF101 treatment vs baseline (initial high level)) | disease severity evaluated by the arthritis clinical score [3] | A3AR expression profile in lymph nodes (LN) (A3AR [1]; AIA rats treated with MTX, compared with pattern seen with IB-MECA) | level of the A3AR in PBMNCs (A3AR [2]; 4 RA patients, prior to vs after onset of treatment with methotrexate)
CNC(=O)[C@H]1O[C@@H](n2cnc3c(NCc4cccc(I)c4)ncnc32)[C@H](O)[C@@H]1O [CF101, N^6-(3-iodobenzyl)-adenosine-5′-N-methyluronamide] | 4 patients | 5 patients | 3 patients | 5 patients | very significant improvement | low expression | down-regulated | essentially no change | reduced | significant decrease | – | –
CN(Cc1cnc2nc(N)nc(N)c2n1)c1ccc(C(=O)N[C@@H](CCC(=O)O)C(=O)O)cc1 [methotrexate, reference compound] | – | – | – | – | – | – | – | – | – | significant decrease | a similar A3AR expression profile was observed | increase

Reference: patent US20130345163A1, “BIOLOGICAL MARKER FOR INFLAMMATION” (CAN-FITE BIOPHARMA LTD., priority 2004, published 2013)
